According to EP0216127B1, “6-Phenoxymethyl-4-hydroxytetrahydropyran-2-ones, process for their preparation, their use as medicines, pharmaceutical compositions and intermediates” (HOECHST AKTIENGESELLSCHAFT, priority 1985, dated 1987):
Like-named read-outs stand apart in the source and are kept apart here.

Key:
HMG-CoA-Reduktase [1] = target: T1, HMG-CoA-Reduktase (Mus musculus, UniProt Q01237); assay: Suppression or inhibition of HMG-CoA reductase in cell cultures of fibroblasts (L cells); assay type: cell-based; settings: 3 h incubation of confluent L-Zellen in lipoprotein-free medium; molar concentration for 50% inhibition of HMG-CoA reductase activity
T1 construct: dann wurde die HMG-CoA-Reduktaseaktivität der Zellen, modifiziert nach Chang et al; endogenous in cells; host or cells: L cells (fibroblasts)
T1 sequence (Q01237 1-887): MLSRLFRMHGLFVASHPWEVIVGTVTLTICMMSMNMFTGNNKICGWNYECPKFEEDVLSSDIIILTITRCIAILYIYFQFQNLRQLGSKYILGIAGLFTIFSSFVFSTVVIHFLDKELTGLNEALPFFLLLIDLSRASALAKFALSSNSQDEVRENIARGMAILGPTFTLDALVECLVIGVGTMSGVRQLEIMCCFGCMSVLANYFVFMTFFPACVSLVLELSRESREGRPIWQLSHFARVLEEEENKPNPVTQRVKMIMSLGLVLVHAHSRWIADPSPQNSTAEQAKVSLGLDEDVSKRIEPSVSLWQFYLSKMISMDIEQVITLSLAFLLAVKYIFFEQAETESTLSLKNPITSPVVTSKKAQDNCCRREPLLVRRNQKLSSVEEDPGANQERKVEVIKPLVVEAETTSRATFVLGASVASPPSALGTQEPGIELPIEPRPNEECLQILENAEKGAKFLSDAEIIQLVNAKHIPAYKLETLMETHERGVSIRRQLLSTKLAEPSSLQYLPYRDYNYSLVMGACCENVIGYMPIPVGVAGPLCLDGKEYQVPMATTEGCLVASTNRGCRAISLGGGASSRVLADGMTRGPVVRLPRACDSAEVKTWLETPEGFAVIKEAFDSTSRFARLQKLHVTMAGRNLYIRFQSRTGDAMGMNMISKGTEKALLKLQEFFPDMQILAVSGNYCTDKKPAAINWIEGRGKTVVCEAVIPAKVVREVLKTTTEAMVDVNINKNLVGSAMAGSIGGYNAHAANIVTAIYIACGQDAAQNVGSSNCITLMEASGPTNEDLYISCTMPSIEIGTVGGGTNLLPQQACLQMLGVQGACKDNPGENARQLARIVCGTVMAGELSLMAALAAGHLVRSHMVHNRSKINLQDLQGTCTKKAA
From the text: 2. Supprimierung bzw. Inhibierung der HMG-CoA-Reduktase in Zellkulturen von Fibroblasten
Monolayers von Fibroblasten (L-Zellen) in lipoproteinfreiem Nährmedium wurden mit entsprechenden Konzentrationen der Prüfsubstanzen eine bestimmte Zeit (z.B. 3 Stunden) inkubiert, dann wurde die HMG-CoA-Reduktaseaktivität der Zellen, modifiziert nach Chang et al. (J. Biol. Chem. 256, 6174 (1981) bestimmt. Dazu wurden die Zellextrakte mit D, L [^3H]-HMG-CoA inkubiert und das unter der Einwirkung der vorhandenen HMG-CoA-Reduktaseaktivität aus den Zellen gebildete Produkt [3H]-Mevalonat nach Cyclisierung zu [^3H]-Mevalonolacton dünnschichtchromatographisch vom Ausgangsprodukt getrennt und unter Verwendung eines internen Standards von ^14C-Mevalonat die Menge des in der Zeiteinheit gebildeten [3H]-Mevalonats, bezogen auf Zellproteinmenge bestimmt. Die unter Zusatz einer bestimmten Konzentration eines Prüfpräparates gefundene HMG-CoA-Reduktaseaktivität der Zellkultur wurde prozentual auf jene einer gleichbehandelten ohne Prüfpräparat, jedoch gleicher Lösungsmittelkonzentration, bezogen.
Unter der Bedingung einer dreistündigen Inkubationszeit konfluenter L-Zellen im lipoproteinfreien Nährmedium mit den untersuchten Verbindungen wurden folgende für eine 50%ige Hemmung der HMG-CoA-Reduktaseaktivität (ICso) erforderliche molare Konzentration der Prüfpräparate ermittelt: […]

HMG-CoA-Reduktase [2] = target: T2, HMG-CoA-Reduktase (Rattus norvegicus, UniProt P51639); assay: Inhibition of HMG-CoA reductase activity in solubilised enzyme preparations from rat liver microsomes; assay type: biochemical, Ratten; settings: solubilised enzyme from liver microsomes of cholestyramine-induced rats; substrate (S,R)14C-HMG-CoA; mean of 3 parallel samples; read-out: IC50-Wert M
T2 construct: solubilisierten Enzympräparationen aus Lebermikrosomen von Ratten; from tissue; host or cells: rat liver microsomes (rats induced with cholestyramine after day-night rhythm shift)
T2 sequence (P51639 1-887): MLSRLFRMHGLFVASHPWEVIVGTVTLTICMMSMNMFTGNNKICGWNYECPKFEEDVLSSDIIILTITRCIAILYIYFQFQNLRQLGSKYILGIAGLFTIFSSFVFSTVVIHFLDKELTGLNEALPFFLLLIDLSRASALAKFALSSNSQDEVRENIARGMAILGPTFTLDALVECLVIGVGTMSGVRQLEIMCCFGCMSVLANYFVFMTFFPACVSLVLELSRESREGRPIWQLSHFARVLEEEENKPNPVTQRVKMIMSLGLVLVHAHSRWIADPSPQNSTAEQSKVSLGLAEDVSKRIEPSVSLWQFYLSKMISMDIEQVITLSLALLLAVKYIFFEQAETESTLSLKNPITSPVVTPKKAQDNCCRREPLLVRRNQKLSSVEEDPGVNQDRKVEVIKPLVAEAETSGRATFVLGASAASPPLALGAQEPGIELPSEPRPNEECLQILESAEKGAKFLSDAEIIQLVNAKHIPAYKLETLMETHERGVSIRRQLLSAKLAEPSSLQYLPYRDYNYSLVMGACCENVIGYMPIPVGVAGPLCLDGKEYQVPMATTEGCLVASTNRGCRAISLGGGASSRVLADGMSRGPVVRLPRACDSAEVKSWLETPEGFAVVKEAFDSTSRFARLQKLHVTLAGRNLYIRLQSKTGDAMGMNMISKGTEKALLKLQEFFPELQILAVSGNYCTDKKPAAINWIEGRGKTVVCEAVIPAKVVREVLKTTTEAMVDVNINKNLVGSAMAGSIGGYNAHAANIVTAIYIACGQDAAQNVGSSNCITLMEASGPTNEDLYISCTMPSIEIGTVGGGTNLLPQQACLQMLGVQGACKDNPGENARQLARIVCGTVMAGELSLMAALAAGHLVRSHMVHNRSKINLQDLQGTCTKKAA
From the text: 1) Inhibierung der HMG-CoA-Reduktase-Aktivität an solubilisierten Enzympräparationen aus Ratten-Lebermikrosomen
Die HMG-CoA-Reduktase-Aktivität wurde an solubilisierten Enzympräparationen aus Lebermikrosomen von Ratten gemessen, die nach Umstellung im Tag-Nacht-Rhythmus mit Cholestyramin (@Cuemid) induziert wurden. Als Substrat diente (S,R)^14C-HMG-CoA, die Konzentration von NADPH wurde während der Inkubation durch ein regenerierendes System aufrechterhalten. Die Abtrennung von ^14C-Me- valonat von Substrat und anderen Produkten (z.B. ^14C-HMG) erfolgte über Säulenelution, wobei das Elutionsprofil jeder Einzelprobe ermittelt wurde. Auf die ständige Mitführung von ^3H-Mevalonat wurde verzichtet, weil es bei der Bestimmung um die Relativangabe der Hemmwirkung handelt. In eine Versuchsreihe wurden jeweils die enzymfreie Kontrolle, der enzymhaltige Normalansatz (= 100%) und solche mit Präparatezusätzen zusammen behandelt. Jeder Einzelwert wurde als Mittelwert aus 3 Parallelproben gebildet. Die Signifikanz der Mittelwertsunterschiede zwischen präparatefreien und präparatehaltigen Proben wurde nach dem t-Test beurteilt. Nach der oben beschriebenen Methode wurden von den erfindungsgemäßen Verbindungen z.B. folgende Hemmwerte auf die HMG-CoA-Reduktase ermittelt (IC50-Wert M = molare Konzentration der Verbindung, die für eine 50%ige Hemmung erforderlich ist): […]

[3] = im Humanversuch; cited from earlier work
[4] = an der Ratte; cited from earlier work

| Structure (SMILES) | IC50 (HMG-CoA-Reduktase [1]) [µM] | IC50 (HMG-CoA-Reduktase [2]) [nM] | further results |
| --- | --- | --- | --- |
| Cc1cc(C)c(OC[C@@H]2C[C@@H](O)CC(=O)O2)c(C(c2ccc(F)cc2)c2ccc(F)cc2)c1 [44 q] | 50 | 70 |  |
| Cc1cc(Cl)cc(CCCOc2ccc(F)cc2)c1OC[C@@H]1C[C@@H](O)CC(=O)O1 [44 i] | 10 | 75 |  |
| Cc1cc(C)c(OC[C@@H]2C[C@@H](O)CC(=O)O2)c(CC2CCCCC2)c1 [44 z] |  | 100 |  |
| COc1ccc(C(c2ccc(F)cc2)c2cc(C)cc(C)c2OC[C@@H]2C[C@@H](O)CC(=O)O2)cc1 (stereo partly drawn) [44 v] | 40 | 100 |  |
| Cc1cc(Cl)cc(CCCOc2ccc(Cl)cc2)c1OC[C@@H]1C[C@@H](O)CC(=O)O1 [44 x] | 14 | 50 |  |
| C=CCc1cc(Cl)cc(CCCOc2ccc(F)cc2)c1OC[C@@H]1C[C@@H](O)CC(=O)O1 [44 j] | 100 | 460 |  |
| O=C1C[C@H](O)C[C@@H](COc2c(Cl)cc(Cl)cc2-c2ccccc2)O1 [44 mm] |  | 190 |  |
| O=C1C[C@H](O)C[C@@H](COc2c(Cl)cc(Cl)cc2C(CCOc2ccc(F)cc2)c2ccc(F)cc2)O1 (stereo partly drawn) [44 dd] |  | 150 |  |
| CC(C)(C)C(=O)OCCCc1cc(Cl)cc(CCCOc2ccc(F)cc2)c1OC[C@@H]1C[C@@H](O)CC(=O)O1 [44 l] |  | 7000 |  |
| O=C1C[C@H](O)C[C@@H](COc2c(Cl)cc(Cl)cc2CC2CCCCC2)O1 [44 kk] |  | 25 |  |
| CC(O)(CC(=O)O)CC(=O)O [3-Hydroxy-3-methyl-glutarsäure] |  |  | cholesterinsenkende Wirkung [3]: signifikante cholesterinsenkende Wirkung; cholesterinsenkende Wirkung [4]: signifikante cholesterinsenkende Wirkung |
| Cc1cc(C)c(OC[C@@H]2C[C@@H](O)CC(=O)O2)c(Cc2ccc(F)cc2)c1 [44 s] |  | 400 |  |
| Cc1cc(Cl)cc(CC2CCCCC2)c1OC[C@@H]1C[C@@H](O)CC(=O)O1 [44 y] | 15 | 75 |  |
| O=C1C[C@H](O)C[C@@H](COc2c(Cl)cc(Cl)cc2C(=O)C2CCCCC2)O1 [44 nn] |  | 190 |  |
| Cc1cc(C)c(OC[C@@H]2C[C@@H](O)CC(=O)O2)c(C(CC(C)C)c2ccc(F)cc2)c1 (stereo partly drawn) [44 u] |  | 140 |  |
| Cc1cc(C(c2ccc(F)c(C)c2)c2cc(Cl)cc(C)c2OC[C@@H]2C[C@@H](O)CC(=O)O2)ccc1F [44 hh] |  | 50 |  |
| Cc1cc(C)c(OC[C@@H]2C[C@@H](O)CC(=O)O2)c(CCOc2ccc(F)cc2)c1 [44 t] |  | 500 |  |
| Cc1cc(C)c(OC[C@@H]2C[C@@H](O)CC(=O)O2)c(C(C)c2ccc(F)cc2)c1 (stereo partly drawn) [44 r] |  | 160 |  |
| Cc1cc(Cl)cc(C(c2ccc(F)cc2)c2ccc(F)cc2)c1OC[C@@H]1C[C@@H](O)CC(=O)O1 [44 bb] |  | 100 |  |
| Cc1cc(C)c(OC[C@@H]2C[C@@H](O)CC(=O)O2)c(CCc2ccc(F)cc2)c1 [44 m] |  | 530 |  |
